This note sets out measurements from ChEMBL document CHEMBL4354790, “Tailored therapeutics based on 1,2,3-1H-triazoles: a mini review” (Medchemcomm, 2019).

Where a SMILES comes first, the peptide text is derived from it.

For test [1], the target named is Telomerase reverse transcriptase (Homo sapiens, UniProt O14746). The test can be described thus: Inhibition of telomerase activity in human A2780 cells incubated for 10 mins by SYBR Green 1 staining based TRAP assay. In kind it is cell-based.
In a further test the target is D-amino-acid oxidase (Homo sapiens, UniProt P14920). The test can be described thus: Inhibition of human DAO.
Chain of D-amino-acid oxidase (P14920 whole entry): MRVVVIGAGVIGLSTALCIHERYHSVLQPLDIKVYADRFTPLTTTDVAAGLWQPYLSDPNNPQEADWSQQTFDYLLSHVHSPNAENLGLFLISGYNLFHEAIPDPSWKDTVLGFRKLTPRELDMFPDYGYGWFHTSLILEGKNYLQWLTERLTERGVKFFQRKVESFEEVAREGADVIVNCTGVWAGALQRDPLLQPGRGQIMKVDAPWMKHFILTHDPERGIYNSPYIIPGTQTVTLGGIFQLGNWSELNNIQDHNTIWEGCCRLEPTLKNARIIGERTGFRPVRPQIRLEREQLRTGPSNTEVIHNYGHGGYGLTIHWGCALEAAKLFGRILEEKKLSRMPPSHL
The target in test [2] is Signal transducer and activator of transcription 3 (Homo sapiens, UniProt P40763). Nature of the test: Inhibition of STAT3 (unknown origin).
Chain of Signal transducer and activator of transcription 3 (P40763 whole entry): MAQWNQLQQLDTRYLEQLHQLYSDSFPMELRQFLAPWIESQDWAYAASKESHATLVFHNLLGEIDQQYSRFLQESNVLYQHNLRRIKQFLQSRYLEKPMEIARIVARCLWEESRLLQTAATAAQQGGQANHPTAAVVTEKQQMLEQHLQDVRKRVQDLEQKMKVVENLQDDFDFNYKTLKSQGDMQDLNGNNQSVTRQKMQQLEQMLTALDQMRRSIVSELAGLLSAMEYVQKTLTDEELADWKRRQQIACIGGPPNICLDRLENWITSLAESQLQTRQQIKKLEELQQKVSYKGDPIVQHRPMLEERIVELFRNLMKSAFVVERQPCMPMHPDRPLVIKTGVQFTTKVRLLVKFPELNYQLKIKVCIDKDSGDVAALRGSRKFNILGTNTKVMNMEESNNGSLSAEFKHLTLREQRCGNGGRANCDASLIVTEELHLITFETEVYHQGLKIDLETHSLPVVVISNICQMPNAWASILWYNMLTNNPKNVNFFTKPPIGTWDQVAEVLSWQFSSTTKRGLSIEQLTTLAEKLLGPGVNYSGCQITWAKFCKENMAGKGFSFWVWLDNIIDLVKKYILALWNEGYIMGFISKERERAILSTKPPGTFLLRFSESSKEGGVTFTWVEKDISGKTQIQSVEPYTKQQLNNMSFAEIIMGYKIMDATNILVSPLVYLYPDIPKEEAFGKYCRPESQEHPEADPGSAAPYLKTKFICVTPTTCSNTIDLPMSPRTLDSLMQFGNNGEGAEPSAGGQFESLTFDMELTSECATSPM
For the next test, the target named is Carbonic anhydrase. Nature of the test: Inhibition of carbonic anhydrase (unknown origin). It counts as protein assay, Homo sapiens.
The target in another test is T1, Tyrosinase (Agaricus bisporus, UniProt O42713).
T1 sequence (O42713 whole entry): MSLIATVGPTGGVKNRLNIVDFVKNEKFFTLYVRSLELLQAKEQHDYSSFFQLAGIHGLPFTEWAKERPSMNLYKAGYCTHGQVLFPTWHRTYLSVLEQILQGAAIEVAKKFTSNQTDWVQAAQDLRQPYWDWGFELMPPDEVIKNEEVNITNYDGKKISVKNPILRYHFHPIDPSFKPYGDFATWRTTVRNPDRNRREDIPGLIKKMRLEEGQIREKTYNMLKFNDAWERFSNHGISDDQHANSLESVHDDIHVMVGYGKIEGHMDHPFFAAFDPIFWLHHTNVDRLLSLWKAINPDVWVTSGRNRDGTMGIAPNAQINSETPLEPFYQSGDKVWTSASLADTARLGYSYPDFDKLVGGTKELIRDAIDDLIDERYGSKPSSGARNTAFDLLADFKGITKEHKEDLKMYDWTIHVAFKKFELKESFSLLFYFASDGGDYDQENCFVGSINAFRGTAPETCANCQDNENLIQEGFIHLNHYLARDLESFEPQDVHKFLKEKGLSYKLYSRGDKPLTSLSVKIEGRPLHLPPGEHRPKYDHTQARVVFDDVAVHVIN
Nature of the test: Inhibition of mushroom tyrosinase using L-DOPA as substrate.

The target of test [3] is Protease (Human immunodeficiency virus 1, UniProt Q9YQ12). The test can be described thus: Inhibition of HIV-1 protease.
Chain of Protease (Human immunodeficiency virus 1, UniProt Q9YQ12) (Q9YQ12 whole entry): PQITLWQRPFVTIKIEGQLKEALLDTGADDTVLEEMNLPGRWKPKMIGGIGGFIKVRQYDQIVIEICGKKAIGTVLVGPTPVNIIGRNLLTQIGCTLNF
Test [4] addresses Protease (Human immunodeficiency virus 1, UniProt Q9YQ12, V82F). Nature of the test: Inhibition of HIV-1 protease V82F mutant.
In test [5] the target is Protease (Human immunodeficiency virus 1, UniProt Q9YQ12, V82A). The test can be described thus: Inhibition of HIV-1 protease V82A mutant.
Chain of Protease (Human immunodeficiency virus 1, UniProt Q9YQ12, V82A) (Q9YQ12 entry or part of it V82A): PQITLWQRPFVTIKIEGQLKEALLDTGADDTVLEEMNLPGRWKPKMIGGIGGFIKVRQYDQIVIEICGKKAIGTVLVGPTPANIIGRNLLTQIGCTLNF
The target of test [6] is Protease (Human immunodeficiency virus 1, UniProt Q9YQ12, G48V). The test can be described thus: Inhibition of HIV-1 protease G48V mutant.
Chain of Protease (Human immunodeficiency virus 1, UniProt Q9YQ12, G48V) (Q9YQ12 entry or part of it G48V): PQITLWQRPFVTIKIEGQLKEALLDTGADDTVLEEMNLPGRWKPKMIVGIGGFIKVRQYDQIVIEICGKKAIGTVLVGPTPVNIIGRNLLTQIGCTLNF

Chain of Telomerase reverse transcriptase (O14746 whole entry): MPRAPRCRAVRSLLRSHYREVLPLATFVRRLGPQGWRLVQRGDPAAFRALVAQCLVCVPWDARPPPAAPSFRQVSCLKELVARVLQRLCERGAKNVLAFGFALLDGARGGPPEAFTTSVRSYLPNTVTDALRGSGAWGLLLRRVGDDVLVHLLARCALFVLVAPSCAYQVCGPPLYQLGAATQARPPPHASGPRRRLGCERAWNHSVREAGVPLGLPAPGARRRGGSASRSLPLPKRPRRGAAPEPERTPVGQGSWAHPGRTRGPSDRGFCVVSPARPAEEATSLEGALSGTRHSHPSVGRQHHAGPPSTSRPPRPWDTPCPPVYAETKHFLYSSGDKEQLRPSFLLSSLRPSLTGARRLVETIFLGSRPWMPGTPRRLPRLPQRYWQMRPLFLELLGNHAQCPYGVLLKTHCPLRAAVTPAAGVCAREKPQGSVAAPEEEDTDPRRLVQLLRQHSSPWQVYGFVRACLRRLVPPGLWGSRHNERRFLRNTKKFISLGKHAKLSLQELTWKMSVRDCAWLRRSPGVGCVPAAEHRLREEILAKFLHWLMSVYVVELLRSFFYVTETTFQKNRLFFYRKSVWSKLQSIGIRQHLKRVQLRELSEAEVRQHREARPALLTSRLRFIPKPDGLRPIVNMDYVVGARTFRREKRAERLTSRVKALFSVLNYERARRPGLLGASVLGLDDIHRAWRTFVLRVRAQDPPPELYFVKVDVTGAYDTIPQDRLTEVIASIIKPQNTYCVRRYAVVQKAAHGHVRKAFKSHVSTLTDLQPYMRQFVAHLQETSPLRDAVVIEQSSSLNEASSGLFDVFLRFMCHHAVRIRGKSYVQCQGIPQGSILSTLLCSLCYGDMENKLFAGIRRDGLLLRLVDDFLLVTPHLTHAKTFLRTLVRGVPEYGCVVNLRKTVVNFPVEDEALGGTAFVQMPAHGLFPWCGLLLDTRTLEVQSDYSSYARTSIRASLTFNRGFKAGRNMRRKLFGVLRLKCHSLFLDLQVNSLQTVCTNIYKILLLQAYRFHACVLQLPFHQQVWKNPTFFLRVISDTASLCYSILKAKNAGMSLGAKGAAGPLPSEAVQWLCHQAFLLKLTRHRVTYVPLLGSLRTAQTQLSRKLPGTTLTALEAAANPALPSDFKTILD
Chain of Protease (Human immunodeficiency virus 1, UniProt Q9YQ12, V82F) (Q9YQ12 entry or part of it V82F): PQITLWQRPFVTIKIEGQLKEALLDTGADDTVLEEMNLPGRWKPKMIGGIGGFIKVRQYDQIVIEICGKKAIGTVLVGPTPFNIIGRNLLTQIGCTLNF

In general, EC50 refers to the concentration at which the effect is half-maximal. A low value points to an effect from little substance. In turn, `O=C(CCN1CCCCC1)Nc1ccc(-n2cc(-c3cccc(-c4cn(-c5ccc(NC(=O)CCN6CCCCC6)cc5)nn4)c3)nn2)cc1` gave an EC50 in test [1] of 17.1 µM.
By Ki is commonly meant the dissociation constant of the complex between target and ligand, obtained from inhibition or displacement. High values mean a looser hold on the target, low ones a stronger hold on the target. Consider `COC(=O)/C(Cc1ccc(O)cc1)=N\OCCc1cn(CC(=O)NC(Cc2ccccc2)C(=O)O)nn1` (stereo not given), for which, on D-amino-acid oxidase, the affinity corresponds to a Ki of 1000 µM.
In [2], `CC(=O)N[C@H](Cc1ccc(OP(=O)(O)O)cc1)C(=O)N[C@@H](C(=O)N[C@@H]1CCCCn2cc(nn2)C[C@H](C(=O)N[C@@H](Cc2ccccc2)C(N)=O)NC(=O)[C@H]([C@@H](C)O)NC1=O)C(C)C` displayed a Ki of 7.3 µM.
`COC(=O)[C@H](CCCCN)NC(=O)[C@@H](NC(=O)[C@@H](CCCCN)NC(=O)[C@@H](NC(=O)[C@@H](Cc1ccc(OP(=O)(O)O)cc1)NC(C)=O)C(C)C)[C@@H](C)O`: the affinity in test [2] corresponds to a Ki of 21.9 µM. This Ki is about 3-fold higher than that of the molecule before.
The molecule `NS(=O)(=O)c1ccc(-c2cn([C@H](Cc3ccccc3)C(=O)NCCc3ccsc3)nn2)cc1` displayed a Ki at Carbonic anhydrase of 0.0002 µM.
The IC50 is the point on the concentration scale where inhibition reaches its midpoint. Molecule `CC(C)[C@@H]1NC(=O)[C@@H]2CCCN2C(=O)[C@H](Cc2ccc(O)cc2)NC(=O)[C@@H]2CCCN2C1=O` (cyclo(PVPY)) displayed an IC50 against Tyrosinase of 1500 µM. This lies in the millimolar range.
For the molecule `COc1ccc(S(=O)(=O)N(CC(C)C)C[C@H](O)[C@@H](Cc2ccccc2)n2cc(COC(=O)N[C@H]3c4ccccc4C[C@H]3O)nn2)cc1`, the Ki on Protease [3], at Protease [4], at Protease [5] and on Protease [6] was 0.0017 µM throughout.
`CC(C)[C@H]1C(=O)N2CCC[C@H]2c2cn(nn2)[C@@H](Cc2ccc(OCc3ccccc3)cc2)C(=O)N2CCC[C@H]2c2cn1nn2` came in with an IC50 against Tyrosinase of 1600 µM. In other words, the millimolar range.
On to `O=C(CCN1CCCC1)Nc1ccc(-n2cc(-c3cccc(-c4cn(-c5ccc(NC(=O)CCN6CCCC6)cc5)nn4)c3)nn2)cc1`, for which the EC50 in test [1] stood at 13.3 µM. That is a double-digit micromolar value.
On the same count and under the same terms, then `CCN(CC)CCC(=O)Nc1ccc(-n2cc(-c3cccc(-c4cn(-c5ccc(NC(=O)CCN(CC)CC)cc5)nn4)c3)nn2)cc1`, with 23.5 µM.
Regarding `CC(C)[C@@H]1NC(=O)[C@@H]2CCCN2C(=O)[C@H](Cc2ccc(OCc3ccccc3)cc2)n2cc(nn2)[C@@H]2CCCN2C1=O`, the IC50 against Tyrosinase is 500 µM.
`CC(C)[C@H](C(=O)NCc1ccccc1)n1cc(-c2ccc(S(N)(=O)=O)cc2)nn1` displayed a Ki at Carbonic anhydrase of 0.0002 µM.
